# Measurements: patent US11667602B2, “Compounds and their use” (AstraZeneca AB, priority 2020, dated 2023)
# What was measured:
# [1] = Human Plasma Protein Binding (Test B); assay type: in vitro ADME; conditions: fraction unbound (fu)
# Method: Human Plasma Protein Binding (Test B)
# The assay was conducted according to the Human Plasma Protein Binding Assay described in pages 167-170 of Wernevik, J. et al., “A Fully Integrated Assay Panel for Early Drug Metabolism and Pharmacokinetics Profiling”, Assay and Drug Development Technologies, 2020, 18(4), 157-179. Data are reported in Table 36 as fraction unbound (fu) (% free). Where the assay was run multiple times for the same compound, the arithmetic mean is reported.
# [2] = Human Liver Microsomal Stability (Test C); assay type: in vitro ADME; conditions: human, liver microsomes
# Method: Human Liver Microsomal Stability (Test C)
# The assay was conducted according to the Human Liver Microsome Stability Assay described in pages 170-174 of Wernevik, J. et al., “A Fully Integrated Assay Panel for Early Drug Metabolism and Pharmacokinetics Profiling”, Assay and Drug Development Technologies, 2020, 18(4), 157-179. Data are reported in Table 36 as CLint (μl/min/mg protein). Where the assay was run multiple times for the same compound, the arithmetic mean is reported.
# [3] = Rat Hepatocyte Stability (Test E); assay type: in vitro ADME; conditions: rat, hepatocytes, geometric mean if run multiple times
# Method: Rat Hepatocyte Stability (Test E)
# The assay was conducted according to the Rat Hepatocyte Stability Assay described in pages 170-174 of Wernevik, J. et al., “A Fully Integrated Assay Panel for Early Drug Metabolism and Pharmacokinetics Profiling”, Assay and Drug Development Technologies, 2020, 18(4), 157-179. Data are reported in Table 36 as mean Clint(μl/min/10^6 cells). Where the assay was run multiple times for the same compound, the geometric mean is reported.
# [4] = Solubility (Test F); assay type: physicochemical; conditions: arithmetic mean if run multiple times
# Method: The assay was conducted according to the Solubility Assay described in pages 164-167 of Wernevik, J. et al., “A Fully Integrated Assay Panel for Early Drug Metabolism and Pharmacokinetics Profiling”, Assay and Drug Development Technologies, 2020, 18(4), 157-179. Data are reported in Table 36 as solubility ([…]. Where the assay was run multiple times for the same compound, the arithmetic mean is reported.
# [5] = target: T1, human RXFP1 (Homo sapiens, UniProt Q9HBX9); assay: RXFP1 Hu cAMP (Test A); assay type: cell-based; set-up: expressed in transfected cells; host or cells: Jump-In T-REx CHO-K1 cells (ThermoFisher), induced with 10 ng/ml doxycycline for 24 h; conditions: RXFP1 Hu cAMP; for EC50: read-out: Test A EC50
# T1 sequence (Q9HBX9 1-757): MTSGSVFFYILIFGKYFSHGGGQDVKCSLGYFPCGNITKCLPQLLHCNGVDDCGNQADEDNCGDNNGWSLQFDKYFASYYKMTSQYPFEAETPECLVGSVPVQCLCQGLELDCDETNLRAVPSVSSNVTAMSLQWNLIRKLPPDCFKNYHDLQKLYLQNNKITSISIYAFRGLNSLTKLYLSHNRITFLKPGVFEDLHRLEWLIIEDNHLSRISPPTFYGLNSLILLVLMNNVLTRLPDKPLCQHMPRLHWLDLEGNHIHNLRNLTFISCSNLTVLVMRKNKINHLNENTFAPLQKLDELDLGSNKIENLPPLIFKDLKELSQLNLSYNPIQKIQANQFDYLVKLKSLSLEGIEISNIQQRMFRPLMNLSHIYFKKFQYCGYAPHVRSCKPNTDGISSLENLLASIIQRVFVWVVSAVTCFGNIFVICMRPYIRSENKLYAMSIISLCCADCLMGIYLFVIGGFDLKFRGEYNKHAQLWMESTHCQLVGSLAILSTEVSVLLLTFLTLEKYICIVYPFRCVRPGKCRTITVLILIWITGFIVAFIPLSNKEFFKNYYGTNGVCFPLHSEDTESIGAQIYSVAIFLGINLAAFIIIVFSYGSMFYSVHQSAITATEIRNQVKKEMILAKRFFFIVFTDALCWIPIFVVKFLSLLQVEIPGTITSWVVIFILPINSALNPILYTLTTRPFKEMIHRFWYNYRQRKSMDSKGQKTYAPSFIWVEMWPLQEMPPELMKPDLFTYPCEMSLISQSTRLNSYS
# Method in brief: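 CHO-K1 (Jump-In T-REx), RXFP1 induced w/ 10 ng/ml doxycycline 24 h, cryopreserved. 0.5 mM IBMX final. cAMP by HTRF, 2 h RT, std curve.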
Structure (SMILES),Test B Human Plasma Protein Binding (% free) [1],microsomal CLint [2],hepatocyte CLint [3],solubility [4],Test A Sinf [5],EC50 [5]
CCC1(CNC(=O)[C@H]2[C@@H]3CC[C@@H](C3)[C@H]2NC(=O)c2cc(O[C@H]3CC[C@@](C)(C(=O)O)CC3)c(C#N)cc2OC)CCC1 [Example 86],4.1 % free,64 µL/min/mg,26 µL/min/1e6 cells,540 µM,115%,0.02 µM
"COc1cc(F)c(-c2ccc(C(=O)O)cc2)cc1C(=O)N[C@H]1[C@@H](C(=O)Nc2cccc(S(=O)(=O)C(F)(F)F)c2)[C@@H]2C=C[C@H]1C2 (racemic) [Example 224, rac-2′-Fluoro-4′-methoxy-5′-(((1R,2R,3S,4S)-3-((3-((trifluoromethyl)sulfonyl)phenyl)carbamoyl)bicyclo[2.2.1]hept-5-en-2-yl)carbamoyl)-[1,1′-biphenyl]-4-carboxylic acid]",0.16 % free,6.3 µL/min/mg,19 µL/min/1e6 cells,870 µM,92%,0.19 µM
CCCC1(CNC(=O)[C@H]2[C@@H]3CC[C@@H](C3)[C@H]2NC(=O)c2cc(O[C@H]3CC[C@@](C)(C(=O)O)CC3)c(C#N)cc2OC)CCC1 [Example 83],1.6 % free,130 µL/min/mg,25 µL/min/1e6 cells,250 µM,111%,0.017 µM
COc1cc(C#N)c(O[C@H]2CC[C@@](C)(C(=O)O)CC2)cc1C(=O)N[C@@H]1[C@H]2CC[C@H](C2)[C@@H]1C(=O)NCC1(C(C)C)CC1 [Example 78],6.9 % free,44 µL/min/mg,37 µL/min/1e6 cells,820 µM,120%,
COc1cc(F)c(O[C@H]2CC[C@@H](C(=O)O)CC2)cc1C(=O)N[C@@H]1[C@H]2CC[C@H](C2)[C@@H]1C(=O)Nc1cccc(OC(F)(F)F)c1F [Example 18],1.2 % free,27 µL/min/mg,49 µL/min/1e6 cells,400 µM,105%,
COc1cc(F)c(O[C@H]2CC[C@@H](C(=O)O)CC2)cc1C(=O)N[C@@H]1[C@H]2CC[C@H](C2)[C@@H]1C(=O)NC12CC(C1)C2 [Example 178],17 % free,8.6 µL/min/mg,39 µL/min/1e6 cells,> 1000 µM,95%,> 2.7 µM
"COc1cc(F)c(C[C@H]2CC[C@@](C)(C(=O)O)CC2)cc1C(=O)N[C@@H]1[C@H]2CC[C@H](C2)[C@@H]1C(=O)NCC1(C)CCC1 [Example 204, (1S,4s)-4-(2-fluoro-4-methoxy-5-(((1S,2R,3S,4R)-3-(((1-methylcyclobutyl)methyl)carbamoyl)bicyclo[2.2.1]heptan-2-yl)carbamoyl)benzyl)-1-methylcyclohexane-1-carboxylic acid]",0.29 % free,78 µL/min/mg,18 µL/min/1e6 cells,61 µM,,

# Next, values leading:
Test B Human Plasma Protein Binding (% free) [1],microsomal CLint [2],hepatocyte CLint [3],solubility [4],Test A Sinf [5],EC50 [5],Structure (SMILES)
0.37 % free,48 µL/min/mg,83 µL/min/1e6 cells,270 µM,108%,0.2 µM,COc1cc(F)c(O[C@H]2CC[C@@H](C(=O)O)CC2)cc1C(=O)N[C@@H]1[C@H]2CC[C@H](C2)[C@@H]1C(=O)Nc1cccc(I)c1 [Example 185]
26 % free,7.9 µL/min/mg,34 µL/min/1e6 cells,1000 µM,112%,8.3 µM,COc1cc(C#N)c(O[C@H]2CC[C@@](C)(C(=O)O)CC2)cc1C(=O)N[C@@H]1[C@H]2CC[C@H](C2)[C@@H]1C(=O)NCC1CCC(C#N)CC1 (stereo partly drawn) [Example 107]
26 % free,< 3 µL/min/mg,10 µL/min/1e6 cells,920 µM,,> 5 µM,COc1cc(C#N)c(O[C@H]2CC[C@@](C)(C(=O)O)CC2)cc1C(=O)N[C@@H]1[C@H]2CC[C@H](C2)[C@@H]1C(=O)NCC1(O)CCCC1 [Example 74]
40 % free,< 3 µL/min/mg,14 µL/min/1e6 cells,950 µM,75%,> 3.1 µM,COc1cc(C#N)c(O[C@H]2CC[C@@](C)(C(=O)O)CC2)cc1C(=O)N[C@@H]1[C@H]2CC[C@H](C2)[C@@H]1C(=O)NC1(C#N)CC1 [Example 72]
<1.2 % free,18 µL/min/mg,22 µL/min/1e6 cells,13 µM,106%,0.37 µM,"COc1cc(F)c(-c2ccc(C[C@@H](N)C(=O)O)cc2)cc1C(=O)N[C@@H]1[C@H]2CC[C@H](C2)[C@@H]1C(=O)Nc1cccc(S(=O)(=O)C(F)(F)F)c1 [Example 291, (R)-2-Amino-3-(2′-fluoro-4′-methoxy-5′-(((1S,2R,3S,4R)-3-((3-((trifluoromethyl)sulfonyl)phenyl)carbamoyl)bicyclo[2.2.1]heptan-2-yl)carbamoyl)-[1,1′-biphenyl]-4-yl)propanoic acid]"
1.4 % free,5.2 µL/min/mg,12 µL/min/1e6 cells,29 µM,100%,> 9.3 µM,"COc1cc(F)c(O[C@H]2CC[C@@](C)(C(=O)O)CC2)cc1C(=O)Nc1c(C)cc(C)cc1C(=O)NCC1(C)CCC1 [Example 211, (1s,4s)-4-(5-((2,4-Dimethyl-6-(((1-methylcyclobutyl)methyl)carbamoyl)phenyl)carbamoyl)-2-fluoro-4-methoxyphenoxy)-1-methylcyclohexane-1-carboxylic acid]"
0.049 % free,< 3 µL/min/mg,10 µL/min/1e6 cells,67 µM,50%,> 3.6 µM,"COc1cc(F)c(-c2ccc(C(=O)O)cc2)cc1C(=O)N[C@@H]1[C@H]2CC[C@H](C2)[C@@H]1C(=O)Nc1ccc(S(F)(F)(F)(F)F)cc1 [Example 210, 2′-Fluoro-4′-methoxy-5′-(((1S,2R,3S,4R)-3-((4-(pentafluoro-λ^6-sulfaneyl)phenyl)carbamoyl)bicyclo[2.2.1]heptan-2-yl)carbamoyl)-[1,1′-biphenyl]-4-carboxylic acid]"
16 % free,8 µL/min/mg,23 µL/min/1e6 cells,890 µM,105%,0.41 µM,COc1cc(C#N)c(O[C@H]2CC[C@@](C)(C(=O)O)CC2)cc1C(=O)N[C@@H]1[C@H]2CC[C@H](C2)[C@@H]1C(=O)NCC1(OC)CCC1 [Example 80]
0.45 % free,33 µL/min/mg,59 µL/min/1e6 cells,950 µM,101%,0.34 µM,COc1cc(F)c(-c2ccc(CCC(=O)O)cc2)cc1C(=O)N[C@@H]1CCC[C@@H]1C(=O)Nc1cccc(S(=O)(=O)C(F)(F)F)c1 [Example 321]
25 % free,< 3 µL/min/mg,14 µL/min/1e6 cells,880 µM,110%,,COc1cc(C#N)c(O[C@H]2CC[C@@](C)(C(=O)O)CC2)cc1C(=O)N[C@@H]1[C@H]2CC[C@H](C2)[C@@H]1C(=O)NCC1(CO)CCC1 [Example 75]
